In ChEMBL document CHEMBL1124217, “2,4-Diamino-5-benzylpyrimidines and analogues as antibacterial agents. 9. Lipophilic trimethoprim analogues as antigonococcal agents” (J Med Chem, 1988):

Assays:
Rattus norvegicus [1] = assay: Conc in kidney of male rat 1.5h after administration of dose; format: functional, organism-based
Rattus norvegicus [2] = assay: Conc in ovary of female rat 0.75h after administration of dose; format: functional, organism-based; details: Female gonad
Rattus norvegicus [3] = assay: Conc in serum of female rat 24 hr after administration of dose; format: functional, organism-based
Rattus norvegicus [4] = assay: Conc in testes of male rat 10h after administration of dose; format: functional, organism-based; details: Testis
Rattus norvegicus [5] = assay: Conc in intestine of male rat 6 hr after administration of dose; format: functional, organism-based
Rattus norvegicus [6] = assay: Conc in ovary of female rat 0.50 hr after administration of dose; format: functional, organism-based; details: Female gonad
Rattus norvegicus [7] = assay: Conc in serum of male rat 1.5h after administration of dose; format: functional, organism-based
Rattus norvegicus [8] = assay: Conc in intestine of male rat 0.50 hr after administration of dose; format: functional, organism-based
Rattus norvegicus [9] = assay: Conc in serum of female rat 10h after administration of dose; format: functional, organism-based
Rattus norvegicus [10] = assay: Conc in liver of male rat 1.5h after administration of dose; format: functional, organism-based
Rattus norvegicus [11] = assay: Conc in serum of male rat 6 hr after administration of dose; format: functional, organism-based
Rattus norvegicus [12] = assay: Conc in stomach of male rat 1 hr after administration of dose; format: functional, organism-based
Rattus norvegicus [13] = assay: Conc in brain of male rat 10h after administration of dose; format: functional, organism-based
Rattus norvegicus [14] = assay: Conc in brain of male rat 4 hr after administration of dose; format: functional, organism-based
Rattus norvegicus [15] = assay: Conc in serum of female rat 0.25 hr after administration of dose; format: functional, organism-based
Rattus norvegicus [16] = assay: Conc in lung of male rat 6 hr after administration of dose; format: functional, organism-based
Rattus norvegicus [17] = assay: Conc in kidney of male rat 4 hr after administration of dose; format: functional, organism-based
Rattus norvegicus [18] = assay: Conc in testes of male rat 6 hr after administration of dose; format: functional, organism-based; details: Testis
Rattus norvegicus [19] = assay: Conc in brain of male rat 0.50 hr after administration of dose; format: functional, organism-based
Dihydrofolate reductase = molecular target: T1, Dihydrofolate reductase (Rattus norvegicus, UniProt Q920D2); assay: Inhibition of Rat liver Dihydrofolate reductase(DHFR); details: read-out: I50
T1 sequence (Q920D2 whole entry): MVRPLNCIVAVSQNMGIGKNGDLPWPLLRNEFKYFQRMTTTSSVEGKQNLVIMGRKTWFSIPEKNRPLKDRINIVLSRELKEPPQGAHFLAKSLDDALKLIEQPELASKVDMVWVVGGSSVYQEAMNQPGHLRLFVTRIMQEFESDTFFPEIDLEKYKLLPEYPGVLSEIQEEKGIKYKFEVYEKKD

Rattus norvegicus [20] = assay: Conc in ovary of female rat 4 hr after administration of dose; format: functional, organism-based; details: Female gonad
Klebsiella aerogenes = assay: Inhibition of growth of Enterobacter aerogenes (2200/186) measured as MIC(compound/MIC Trimethoprim; format: functional
Rattus norvegicus [21] = assay: Conc in lung of male rat 0.75h after administration of dose; format: functional, organism-based
Rattus norvegicus [22] = assay: Conc in lung of male rat 10h after administration of dose; format: functional, organism-based
Rattus norvegicus [23] = assay: Conc in muscle of male rat 3h after administration of dose; format: functional, organism-based; details: Muscle tissue
Rattus norvegicus [24] = assay: Conc in stomach of male rat 1.5h after administration of dose; format: functional, organism-based
Rattus norvegicus [25] = assay: Conc in serum of female rat 1 hr after administration of dose; format: functional, organism-based
Rattus norvegicus [26] = assay: Conc in ovary of female rat 1 hr after administration of dose; format: functional, organism-based; details: Female gonad
Rattus norvegicus [27] = assay: Conc in lung of male rat after 0.25 hr administration of dose; format: functional, organism-based
Rattus norvegicus [28] = assay: Conc in kidney of male rat 2 hr after administration of dose; format: functional, organism-based
Rattus norvegicus [29] = assay: Conc in intestine of male rat 10h after administration of dose; format: functional, organism-based
Rattus norvegicus [30] = assay: Conc in muscle of male rat 10h after administration of dose; format: functional, organism-based; details: Muscle tissue
Rattus norvegicus [31] = assay: Conc in liver of male rat 0.50 hr after administration of dose; format: functional, organism-based
Rattus norvegicus [32] = assay: Conc in stomach of male rat 0.75h after administration of dose; format: functional, organism-based
Rattus norvegicus [33] = assay: Conc in ovary of female rat 1.5h after administration of dose; format: functional, organism-based; details: Female gonad
Rattus norvegicus [34] = assay: Conc in testes of male rat 4 hr after administration of dose; format: functional, organism-based; details: Testis
Rattus norvegicus [35] = assay: Conc in liver of male rat 3h after administration of dose; format: functional, organism-based
Rattus norvegicus [36] = assay: Conc in serum of male rat 4 hr after administration of dose; format: functional, organism-based
Rattus norvegicus [37] = assay: Conc in brain of male rat 0.25 hr after administration of dose; format: functional, organism-based
Rattus norvegicus [38] = assay: Conc in stomach of male rat 10h after administration of dose; format: functional, organism-based
Rattus norvegicus [39] = assay: Conc in serum of male rat 0.50 hr after administration of dose; format: functional, organism-based
Rattus norvegicus [40] = assay: Conc in brain of male rat 6 hr after administration of dose; format: functional, organism-based
Rattus norvegicus [41] = assay: Conc in serum of male rat 0.75h after administration of dose; format: functional, organism-based
Rattus norvegicus [42] = assay: Conc in muscle of male rat 24 hr after administration of dose; format: functional, organism-based; details: Muscle tissue
Rattus norvegicus [43] = assay: Conc in serum of male rat 24 hr after administration of dose; format: functional, organism-based
Rattus norvegicus [44] = assay: Conc in ovary of female rat 24 hr after administration of dose; format: functional, organism-based; details: Female gonad
Rattus norvegicus [45] = assay: Conc in lung of male rat 2 hr after administration of dose; format: functional, organism-based
Rattus norvegicus [46] = assay: Conc in brain of male rat 2 hr after administration of dose; format: functional, organism-based
Rattus norvegicus [47] = assay: Conc in intestine of male rat 2 hr after administration of dose; format: functional, organism-based
Rattus norvegicus [48] = assay: Conc in muscle of male rat 0.50 hr after administration of dose; format: functional, organism-based; details: Muscle tissue
Rattus norvegicus [49] = assay: Conc in testes of male 1 hr rat after administration of dose; format: functional, organism-based; details: Testis
Rattus norvegicus [50] = assay: Conc in serum of male rat 2 hr after administration of dose; format: functional, organism-based
Rattus norvegicus [51] = assay: Conc in serum of female rat 0.75h after administration of dose; format: functional, organism-based
Rattus norvegicus [52] = assay: Conc in kidney of male rat 3h after administration of dose; format: functional, organism-based
Rattus norvegicus [53] = assay: Conc in testes of male rat 1.5h after administration of dose; format: functional, organism-based; details: Testis
Rattus norvegicus [54] = assay: Conc in serum of female rat 4 hr after administration of dose; format: functional, organism-based
Rattus norvegicus [55] = assay: Conc in kidney of male rat 1 hr after administration of dose; format: functional, organism-based
Rattus norvegicus [56] = assay: Conc in intestine of male rat 1.5h after administration of dose; format: functional, organism-based
Rattus norvegicus [57] = assay: Conc in kidney of male rat 24 hr after administration of dose; format: functional, organism-based
Rattus norvegicus [58] = assay: Conc in intestine of male rat 24 hr after administration of dose; format: functional, organism-based
Rattus norvegicus [59] = assay: Conc in brain of male rat 0.75h after administration of dose; format: functional, organism-based
Rattus norvegicus [60] = assay: Conc in brain of male rat 24 hr after administration of dose; format: functional, organism-based
Rattus norvegicus [61] = assay: Conc in lung of male rat 4 hr after administration of dose; format: functional, organism-based
Rattus norvegicus [62] = assay: Conc in serum of female rat 0.50 hr after administration of dose; format: functional, organism-based
Rattus norvegicus [63] = assay: Conc in muscle of male rat 2 hr after administration of dose; format: functional, organism-based; details: Muscle tissue
Rattus norvegicus [64] = assay: Conc in testes of male rat 0.25 hr after administration of dose; format: functional, organism-based; details: Testis
Rattus norvegicus [65] = assay: Conc in stomach of male rat 3h after administration of dose; format: functional, organism-based
Rattus norvegicus [66] = assay: Conc in stomach of male rat 2 hr after administration of dose; format: functional, organism-based
Rattus norvegicus [67] = assay: Conc in lung of male rat 1 hr after administration of dose; format: functional, organism-based
Proteus vulgaris = assay: Inhibition of growth of Proteus vulgaris (CN329) measured as MIC compound/MIC Trimethoprim; format: functional

CC(C)c1cc(Cc2cnc(N)nc2N)cc(C(C)C)c1O
Concentration (Rattus norvegicus [1]): 6.74 µg/g | Concentration (Rattus norvegicus [2]): 4.48 µg/g | Concentration (Rattus norvegicus [3]): 0.14 µg/g | Concentration (Rattus norvegicus [4]): 0.66 µg/g | Concentration (Rattus norvegicus [5]): 4.13 µg/g | Concentration (Rattus norvegicus [6]): 4.06 µg/g | Concentration (Rattus norvegicus [7]): 0.8 µg/g | Concentration (Rattus norvegicus [8]): 114 µg/g | Concentration (Rattus norvegicus [9]): 0.16 µg/g | Concentration (Rattus norvegicus [10]): 13.5 µg/g | Concentration (Rattus norvegicus [11]): 0.27 µg/g | Concentration (Rattus norvegicus [12]): 47 µg/g | Concentration (Rattus norvegicus [13]): 0.04 µg/g | Concentration (Rattus norvegicus [14]): 0.19 µg/g | Concentration (Rattus norvegicus [15]): 0.49 µg/g | Concentration (Rattus norvegicus [16]): 0.52 µg/g | Concentration (Rattus norvegicus [17]): 2.07 µg/g | Concentration (Rattus norvegicus [18]): 0.41 µg/g | Concentration (Rattus norvegicus [19]): 0.58 µg/g | IC50 (Dihydrofolate reductase): 7.2 µM | Concentration (Rattus norvegicus [20]): 1.55 µg/g | MIC ratio (Klebsiella aerogenes): 100 | Concentration (Rattus norvegicus [21]): 11.3 µg/g | Concentration (Rattus norvegicus [22]): 0.4 µg/g | Concentration (Rattus norvegicus [23]): 1.38 µg/g | Concentration (Rattus norvegicus [24]): 97.1 µg/g | Concentration (Rattus norvegicus [25]): 1.09 µg/g | Concentration (Rattus norvegicus [26]): 3.33 µg/g | Concentration (Rattus norvegicus [27]): 2.52 µg/g | Concentration (Rattus norvegicus [28]): 4.08 µg/g | Concentration (Rattus norvegicus [29]): 2.29 µg/g | Concentration (Rattus norvegicus [30]): 0.13 µg/g | Concentration (Rattus norvegicus [31]): 29.9 µg/g | Concentration (Rattus norvegicus [32]): 319 µg/g | Concentration (Rattus norvegicus [33]): 4.5 µg/g | Concentration (Rattus norvegicus [34]): 1.01 µg/g | Concentration (Rattus norvegicus [35]): 9.56 µg/g | Concentration (Rattus norvegicus [36]): 0.42 µg/g | Concentration (Rattus norvegicus [37]): 0.13 µg/g | Concentration (Rattus norvegicus [38]): 2 µg/g | Concentration (Rattus norvegicus [39]): 1.12 µg/g | Concentration (Rattus norvegicus [40]): 0.05 µg/g | Concentration (Rattus norvegicus [41]): 1.13 µg/g | Concentration (Rattus norvegicus [42]): 0.04 µg/g | Concentration (Rattus norvegicus [43]): 0.08 µg/g | Concentration (Rattus norvegicus [44]): 0.08 µg/g | Concentration (Rattus norvegicus [45]): 4.98 µg/g | Concentration (Rattus norvegicus [46]): 0.43 µg/g | Concentration (Rattus norvegicus [47]): 11.6 µg/g | Concentration (Rattus norvegicus [48]): 1.45 µg/g | Concentration (Rattus norvegicus [49]): 1.32 µg/g | Concentration (Rattus norvegicus [50]): 0.49 µg/g | Concentration (Rattus norvegicus [51]): 1.44 µg/g | Concentration (Rattus norvegicus [52]): 4.11 µg/g | Concentration (Rattus norvegicus [53]): 1.52 µg/g | Concentration (Rattus norvegicus [54]): 0.53 µg/g | Concentration (Rattus norvegicus [55]): 7.78 µg/g | Concentration (Rattus norvegicus [56]): 14.9 µg/g | Concentration (Rattus norvegicus [57]): 0.5 µg/g | Concentration (Rattus norvegicus [58]): 0.85 µg/g | Concentration (Rattus norvegicus [59]): 1.01 µg/g | Concentration (Rattus norvegicus [60]): 0.004 µg/g | Concentration (Rattus norvegicus [61]): 2.3 µg/g | Concentration (Rattus norvegicus [62]): 0.9 µg/g | Concentration (Rattus norvegicus [63]): 1.4 µg/g | Concentration (Rattus norvegicus [64]): 1.34 µg/g | Concentration (Rattus norvegicus [65]): 8.92 µg/g | Concentration (Rattus norvegicus [66]): 46.1 µg/g | Concentration (Rattus norvegicus [67]): 11.9 µg/g | MIC ratio (Proteus vulgaris): 300
